This data set in a line: pKa by Fast UV spectrometric titration (SiriusT3). It counts as physicochemical. The following applies: water/methanol mixtures; Yasuda–Shedlovsky extrapolation from water/methanol titrations, 25 °C; low absorbance, value to be treated with caution. The text has this:
A high-throughput spectrometric screening assay (Fast UV method) using the SiriusT3 (Pion Inc., Billerica, MA, USA) was applied. Samples were titrated under varying water/methanol ratios and apparent pKa values were extrapolated using the Yasuda–Shedlovsky extrapolation. The experimental details are provided in Supplementary Materials. Measured pKa values are presented as means (±SD) and were compared to literature values as well as in silico predictions using the software ADMET Predictor version 9 (Simulations Plus Inc., Lancaster, CA, USA) and ACD/Labs Release 2021.1.2 (Advanced Chemistry Development Inc., Toronto, ON, Canada). […]
r0 2 ∙ ρ ∙IDR∙Dose ൌ DF ∙ PefRsi ∙mdissolved (r0 < 30 μm, hparticle = r0) (S39) […]
spectrometric screening assay (Fast UV method) using an automated titrator system with an incorporated UV‐Vis spectrometer (SiriusT3, Pion Inc., Billerica, MA, USA). […] The pKa values were determined from three titrations with different water/methanol ratios and extrapolation of apparent pKa values in the presence of co‐solvents using the Yasuda‐Shedlovsky extrapolation. Measured pKa values are presented as means with standard deviation and were compared to literature va lues and predictions using the software ADMET Predictor

The structures appear in SMILES notation.

The pKa is the pH at which an ionisable group is half protonated. Consider `Cc1ncc(OC[C@@]2(c3cccc(F)c3)C[C@H]2C(=O)Nc2ccc(F)cn2)c(C)n1` [Lemborexant, lemborexant], for which the pKa was 2.18 ± 0.05.
